We go through 9 molecules from ChEMBL document CHEMBL3991601, “The target landscape of clinical kinase drugs” (Science, 2017).

For experiment [1], the target named is RAC-gamma serine/threonine-protein kinase (Homo sapiens, UniProt Q9Y243).
Experiment [2] concerns the target Structural maintenance of chromosomes protein 2 (Homo sapiens, UniProt O95347).
A further experiment addresses T1, Ephrin type-B receptor 4 (Homo sapiens, UniProt P54760).
T1 sequence (P54760 whole entry): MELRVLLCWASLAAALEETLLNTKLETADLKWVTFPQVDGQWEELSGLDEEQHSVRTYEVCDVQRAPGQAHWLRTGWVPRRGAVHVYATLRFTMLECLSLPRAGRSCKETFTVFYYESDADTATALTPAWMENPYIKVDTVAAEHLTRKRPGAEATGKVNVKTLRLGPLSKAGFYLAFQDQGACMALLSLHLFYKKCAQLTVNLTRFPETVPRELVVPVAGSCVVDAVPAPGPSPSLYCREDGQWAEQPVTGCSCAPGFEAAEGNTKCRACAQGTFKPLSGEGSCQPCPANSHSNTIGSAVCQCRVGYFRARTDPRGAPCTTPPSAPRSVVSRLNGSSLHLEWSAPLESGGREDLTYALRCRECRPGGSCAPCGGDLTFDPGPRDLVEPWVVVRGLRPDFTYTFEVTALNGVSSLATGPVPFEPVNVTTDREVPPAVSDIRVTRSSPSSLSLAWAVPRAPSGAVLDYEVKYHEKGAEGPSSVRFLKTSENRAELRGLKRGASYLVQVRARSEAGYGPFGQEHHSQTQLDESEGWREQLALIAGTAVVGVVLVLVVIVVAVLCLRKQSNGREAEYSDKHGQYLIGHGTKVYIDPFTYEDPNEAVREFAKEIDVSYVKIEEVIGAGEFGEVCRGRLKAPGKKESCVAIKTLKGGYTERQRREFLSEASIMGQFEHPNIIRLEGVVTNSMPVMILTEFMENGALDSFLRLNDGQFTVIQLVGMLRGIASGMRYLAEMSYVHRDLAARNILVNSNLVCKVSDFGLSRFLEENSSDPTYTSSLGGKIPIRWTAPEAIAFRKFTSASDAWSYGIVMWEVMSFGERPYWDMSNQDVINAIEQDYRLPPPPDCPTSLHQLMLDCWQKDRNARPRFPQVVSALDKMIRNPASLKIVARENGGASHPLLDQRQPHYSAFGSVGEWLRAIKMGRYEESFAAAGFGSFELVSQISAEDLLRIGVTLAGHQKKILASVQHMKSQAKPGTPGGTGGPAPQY

The target of experiment [3] is Mitogen-activated protein kinase 3 (Homo sapiens, UniProt P27361).
Chain of Mitogen-activated protein kinase 3 (P27361 whole entry): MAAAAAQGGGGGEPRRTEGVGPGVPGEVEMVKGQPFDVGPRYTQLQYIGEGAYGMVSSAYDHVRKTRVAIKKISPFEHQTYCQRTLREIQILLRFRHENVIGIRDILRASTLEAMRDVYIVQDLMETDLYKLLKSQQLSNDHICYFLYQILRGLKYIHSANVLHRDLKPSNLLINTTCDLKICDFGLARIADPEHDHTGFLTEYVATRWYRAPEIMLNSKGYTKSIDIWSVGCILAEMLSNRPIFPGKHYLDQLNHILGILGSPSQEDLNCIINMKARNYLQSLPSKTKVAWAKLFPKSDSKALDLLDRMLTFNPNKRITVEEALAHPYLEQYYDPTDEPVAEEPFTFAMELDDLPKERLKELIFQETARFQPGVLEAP
The target in experiment [4] is Putative heat shock protein HSP 90-beta 2 (Homo sapiens, UniProt Q58FF8).
Chain of Putative heat shock protein HSP 90-beta 2 (Q58FF8 whole entry): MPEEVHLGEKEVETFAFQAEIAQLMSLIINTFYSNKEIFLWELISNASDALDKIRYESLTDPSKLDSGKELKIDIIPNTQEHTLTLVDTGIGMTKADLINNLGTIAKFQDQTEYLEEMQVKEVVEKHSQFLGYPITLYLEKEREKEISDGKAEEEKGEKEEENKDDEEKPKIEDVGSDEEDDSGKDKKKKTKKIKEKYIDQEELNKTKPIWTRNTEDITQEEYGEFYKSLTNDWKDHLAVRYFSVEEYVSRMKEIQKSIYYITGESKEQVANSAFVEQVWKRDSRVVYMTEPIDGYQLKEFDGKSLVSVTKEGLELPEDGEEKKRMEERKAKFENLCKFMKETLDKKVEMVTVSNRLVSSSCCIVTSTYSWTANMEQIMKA
The target in experiment [5] is T2, Serine/threonine-protein kinase Nek2 (Homo sapiens, UniProt P51955).
T2 sequence (P51955 whole entry): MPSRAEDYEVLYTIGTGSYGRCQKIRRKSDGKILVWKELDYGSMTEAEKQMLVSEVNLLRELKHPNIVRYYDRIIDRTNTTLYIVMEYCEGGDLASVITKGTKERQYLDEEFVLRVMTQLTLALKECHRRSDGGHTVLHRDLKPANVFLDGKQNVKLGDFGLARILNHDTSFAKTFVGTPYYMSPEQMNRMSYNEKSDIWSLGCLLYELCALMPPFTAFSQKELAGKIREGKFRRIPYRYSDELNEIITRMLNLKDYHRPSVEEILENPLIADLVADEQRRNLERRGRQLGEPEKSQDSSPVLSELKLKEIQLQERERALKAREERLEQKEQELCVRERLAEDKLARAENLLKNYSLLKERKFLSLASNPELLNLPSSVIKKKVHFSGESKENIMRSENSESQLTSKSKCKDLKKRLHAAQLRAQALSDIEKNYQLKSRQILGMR

Experiment [6] deals with T3, EKC/KEOPS complex subunit TP53RK (Homo sapiens, UniProt Q96S44).
T3 sequence (Q96S44 whole entry): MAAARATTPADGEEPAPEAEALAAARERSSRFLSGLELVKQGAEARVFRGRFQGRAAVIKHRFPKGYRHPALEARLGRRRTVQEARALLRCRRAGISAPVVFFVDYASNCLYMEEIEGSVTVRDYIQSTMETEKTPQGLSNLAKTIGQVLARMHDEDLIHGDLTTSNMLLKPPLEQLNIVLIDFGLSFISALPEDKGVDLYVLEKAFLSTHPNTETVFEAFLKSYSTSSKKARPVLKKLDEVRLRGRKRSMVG

In experiment [7] the target is NADH dehydrogenase [ubiquinone] 1 alpha subcomplex subunit 13 (Homo sapiens, UniProt Q9P0J0).
Chain of NADH dehydrogenase [ubiquinone] 1 alpha subcomplex subunit 13 (Q9P0J0 whole entry, one chain of several): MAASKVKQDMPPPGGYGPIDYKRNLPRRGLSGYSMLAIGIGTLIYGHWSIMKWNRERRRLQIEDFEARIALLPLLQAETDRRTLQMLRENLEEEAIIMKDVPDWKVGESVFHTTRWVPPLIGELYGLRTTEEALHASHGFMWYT
Experiment [8] concerns the target Ribosomal protein S6 kinase alpha-5 (Homo sapiens, UniProt O75582).
In experiment [9] the target is T4, Ferrochelatase, mitochondrial (Homo sapiens, UniProt P22830).
T4 sequence (P22830 whole entry): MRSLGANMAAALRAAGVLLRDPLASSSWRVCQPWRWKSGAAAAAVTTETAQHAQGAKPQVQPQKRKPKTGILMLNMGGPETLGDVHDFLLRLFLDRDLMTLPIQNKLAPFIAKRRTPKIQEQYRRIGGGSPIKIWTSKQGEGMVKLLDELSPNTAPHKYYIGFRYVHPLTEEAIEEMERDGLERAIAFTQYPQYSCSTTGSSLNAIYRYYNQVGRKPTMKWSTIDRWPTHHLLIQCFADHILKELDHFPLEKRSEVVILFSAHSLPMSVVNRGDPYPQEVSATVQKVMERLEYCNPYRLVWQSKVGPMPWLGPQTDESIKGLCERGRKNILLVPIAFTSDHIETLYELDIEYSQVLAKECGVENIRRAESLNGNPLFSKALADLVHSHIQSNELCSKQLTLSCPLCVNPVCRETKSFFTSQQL

Experiment [10] has as its target Tyrosine-protein kinase BTK (Homo sapiens, UniProt Q06187).
Experiment [11] has as its target Tyrosine-protein kinase HCK (Homo sapiens, UniProt P08631).
Experiment [12] addresses Eukaryotic translation initiation factor 2-alpha kinase 1 (Homo sapiens, UniProt Q9BQI3).

Molecules are shown by their SMILES. Activity calls are given as the source filed them. For most assays here, no stated cut-off is given here; in the data, actives have a measured Kd and inactives only a lower limit.

Chain of Eukaryotic translation initiation factor 2-alpha kinase 1 (Q9BQI3 whole entry): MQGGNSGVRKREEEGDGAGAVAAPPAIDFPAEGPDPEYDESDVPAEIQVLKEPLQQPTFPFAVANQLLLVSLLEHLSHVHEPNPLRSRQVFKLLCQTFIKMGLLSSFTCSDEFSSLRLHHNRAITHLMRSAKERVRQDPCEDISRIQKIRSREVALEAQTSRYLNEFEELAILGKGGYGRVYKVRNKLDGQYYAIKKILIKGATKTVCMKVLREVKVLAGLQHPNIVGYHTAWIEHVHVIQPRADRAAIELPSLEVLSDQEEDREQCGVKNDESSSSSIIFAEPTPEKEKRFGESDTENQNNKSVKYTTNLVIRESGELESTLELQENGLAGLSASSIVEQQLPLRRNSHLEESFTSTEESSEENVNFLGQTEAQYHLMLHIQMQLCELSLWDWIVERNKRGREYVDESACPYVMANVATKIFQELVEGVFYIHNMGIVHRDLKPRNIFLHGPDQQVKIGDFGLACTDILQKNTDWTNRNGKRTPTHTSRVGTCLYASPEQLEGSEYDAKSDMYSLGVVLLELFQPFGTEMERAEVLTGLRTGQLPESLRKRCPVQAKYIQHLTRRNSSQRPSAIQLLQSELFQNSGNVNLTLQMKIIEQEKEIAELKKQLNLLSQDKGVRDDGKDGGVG
Chain of Tyrosine-protein kinase BTK (Q06187 whole entry): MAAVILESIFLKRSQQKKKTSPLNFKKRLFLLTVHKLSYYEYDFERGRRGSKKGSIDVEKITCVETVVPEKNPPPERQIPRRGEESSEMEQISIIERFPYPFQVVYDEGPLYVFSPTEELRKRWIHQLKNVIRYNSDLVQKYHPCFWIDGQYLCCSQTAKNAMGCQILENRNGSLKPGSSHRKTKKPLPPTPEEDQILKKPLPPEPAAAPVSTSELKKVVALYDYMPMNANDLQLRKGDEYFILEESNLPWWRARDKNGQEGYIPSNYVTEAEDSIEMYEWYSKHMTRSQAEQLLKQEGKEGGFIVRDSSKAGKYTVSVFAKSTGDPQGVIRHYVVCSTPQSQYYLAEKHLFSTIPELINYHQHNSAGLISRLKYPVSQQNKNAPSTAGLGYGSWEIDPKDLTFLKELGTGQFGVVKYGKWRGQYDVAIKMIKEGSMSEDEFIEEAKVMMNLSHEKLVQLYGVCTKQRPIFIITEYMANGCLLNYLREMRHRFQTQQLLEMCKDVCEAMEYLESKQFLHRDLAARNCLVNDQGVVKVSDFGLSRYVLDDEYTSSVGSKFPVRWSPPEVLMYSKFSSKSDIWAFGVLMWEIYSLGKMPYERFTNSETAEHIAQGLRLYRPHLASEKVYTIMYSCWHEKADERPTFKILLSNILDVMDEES
Chain of Tyrosine-protein kinase HCK (P08631 whole entry): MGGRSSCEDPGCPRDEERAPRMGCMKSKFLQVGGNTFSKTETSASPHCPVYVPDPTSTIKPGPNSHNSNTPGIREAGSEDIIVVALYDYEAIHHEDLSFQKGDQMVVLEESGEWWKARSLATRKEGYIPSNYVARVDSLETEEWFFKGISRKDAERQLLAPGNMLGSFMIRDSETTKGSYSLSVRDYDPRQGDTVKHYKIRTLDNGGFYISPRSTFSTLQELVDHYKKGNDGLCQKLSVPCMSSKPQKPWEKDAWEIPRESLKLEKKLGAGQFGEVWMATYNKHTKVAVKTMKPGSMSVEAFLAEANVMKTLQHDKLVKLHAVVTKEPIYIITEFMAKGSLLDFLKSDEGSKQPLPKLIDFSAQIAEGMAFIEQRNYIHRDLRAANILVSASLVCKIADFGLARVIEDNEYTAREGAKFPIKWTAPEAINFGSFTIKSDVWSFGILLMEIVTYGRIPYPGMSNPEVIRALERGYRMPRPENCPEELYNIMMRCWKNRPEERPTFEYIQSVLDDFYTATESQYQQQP
Chain of Ribosomal protein S6 kinase alpha-5 (O75582 whole entry): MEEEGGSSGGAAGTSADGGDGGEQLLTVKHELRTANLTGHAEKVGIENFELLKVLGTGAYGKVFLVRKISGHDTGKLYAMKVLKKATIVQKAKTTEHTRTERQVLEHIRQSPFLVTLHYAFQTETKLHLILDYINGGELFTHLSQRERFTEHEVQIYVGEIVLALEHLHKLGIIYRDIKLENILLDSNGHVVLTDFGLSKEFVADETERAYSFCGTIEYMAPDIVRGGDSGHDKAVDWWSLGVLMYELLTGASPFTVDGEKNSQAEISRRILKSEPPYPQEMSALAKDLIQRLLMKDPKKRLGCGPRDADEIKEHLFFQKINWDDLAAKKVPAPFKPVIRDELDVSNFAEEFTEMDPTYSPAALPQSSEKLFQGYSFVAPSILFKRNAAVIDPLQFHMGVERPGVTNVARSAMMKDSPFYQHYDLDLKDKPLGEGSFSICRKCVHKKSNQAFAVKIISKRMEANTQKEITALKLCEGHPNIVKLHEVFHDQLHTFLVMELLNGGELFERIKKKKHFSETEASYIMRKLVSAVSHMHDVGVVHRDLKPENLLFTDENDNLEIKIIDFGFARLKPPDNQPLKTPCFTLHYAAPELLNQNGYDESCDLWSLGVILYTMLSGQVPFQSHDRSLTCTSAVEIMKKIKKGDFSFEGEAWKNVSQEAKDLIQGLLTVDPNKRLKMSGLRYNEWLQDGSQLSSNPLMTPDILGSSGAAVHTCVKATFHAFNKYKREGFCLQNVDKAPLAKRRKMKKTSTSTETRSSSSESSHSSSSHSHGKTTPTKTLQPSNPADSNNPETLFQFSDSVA
Chain of Structural maintenance of chromosomes protein 2 (O95347 whole entry): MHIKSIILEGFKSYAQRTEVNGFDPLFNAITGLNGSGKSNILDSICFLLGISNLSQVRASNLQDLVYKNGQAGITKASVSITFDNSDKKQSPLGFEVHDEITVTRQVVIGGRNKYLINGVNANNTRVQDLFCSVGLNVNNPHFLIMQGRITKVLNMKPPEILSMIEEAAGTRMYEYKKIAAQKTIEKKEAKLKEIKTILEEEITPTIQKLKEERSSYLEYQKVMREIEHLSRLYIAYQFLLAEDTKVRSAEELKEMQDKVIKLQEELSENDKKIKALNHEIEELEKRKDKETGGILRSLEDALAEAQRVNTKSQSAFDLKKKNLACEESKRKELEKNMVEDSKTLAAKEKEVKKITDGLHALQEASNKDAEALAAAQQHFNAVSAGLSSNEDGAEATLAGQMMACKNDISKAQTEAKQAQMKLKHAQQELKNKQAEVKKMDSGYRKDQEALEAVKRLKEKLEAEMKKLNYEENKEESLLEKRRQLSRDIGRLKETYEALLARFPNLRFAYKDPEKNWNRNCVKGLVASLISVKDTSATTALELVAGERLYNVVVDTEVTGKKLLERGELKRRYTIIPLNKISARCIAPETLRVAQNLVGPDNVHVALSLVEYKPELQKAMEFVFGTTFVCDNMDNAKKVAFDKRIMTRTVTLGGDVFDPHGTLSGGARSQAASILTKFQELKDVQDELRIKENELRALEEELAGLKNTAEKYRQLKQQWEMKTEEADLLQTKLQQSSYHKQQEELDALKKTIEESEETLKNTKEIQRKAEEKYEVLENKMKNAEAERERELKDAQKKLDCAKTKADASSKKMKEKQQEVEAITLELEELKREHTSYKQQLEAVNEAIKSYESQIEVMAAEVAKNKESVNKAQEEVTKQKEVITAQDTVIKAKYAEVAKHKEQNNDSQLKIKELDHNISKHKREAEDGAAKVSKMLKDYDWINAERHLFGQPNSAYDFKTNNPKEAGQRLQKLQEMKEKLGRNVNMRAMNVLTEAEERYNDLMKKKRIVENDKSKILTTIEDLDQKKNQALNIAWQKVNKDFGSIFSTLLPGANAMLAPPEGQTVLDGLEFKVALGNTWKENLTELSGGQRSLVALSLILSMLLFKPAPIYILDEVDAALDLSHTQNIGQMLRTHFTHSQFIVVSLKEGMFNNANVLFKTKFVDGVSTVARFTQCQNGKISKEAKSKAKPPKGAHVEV

With `CC1(COc2ccc3c(c2)ncn3-c2ccc3cccc(N4CCC(N)CC4)c3n2)COC1` [CRENOLANIB], the Kd is > 30 µM (inactive) in experiment [1]; > 30 µM (inactive) in [2]; > 30 µM (inactive) at Ephrin type-B receptor 4; > 30 µM (inactive) in [3]; 2.57 µM (active) in experiment [4]; > 30 µM (inactive) in [5]. For the same molecule, the Kd in experiment [6] was > 30 µM (inactive); in experiment [7], > 30 µM (inactive); in [8], > 30 µM (inactive); in [9], 7.35 µM (active); in experiment [10], > 30 µM (inactive); in experiment [11] it was > 30 µM (inactive). The Kd in [12] was > 30 µM (inactive).
For the molecule `NC(=O)c1ccc(N(C(N)=O)c2c(F)cccc2F)nc1-c1ccc(F)cc1F` [VX-702], the Kd (in experiment [1]; in [2]; on Ephrin type-B receptor 4; in experiment [3]; in experiment [4]; in [5]) was > 30 µM (inactive) each time. The Kd in experiment [6], in experiment [7], in experiment [8], in [9], in experiment [10] and in experiment [11] was > 30 µM (inactive) each time. The Kd in experiment [12] was > 30 µM (inactive).
For the molecule `Cc1cc(-c2cc(OC(=O)c3ccccc3)ccc2Cl)cc2nnc(Nc3ccc(OCCN4CCCC4)cc3)nc12` [TG100-801], the Kd in experiment [1] was > 30 µM (inactive); in experiment [2], > 30 µM (inactive); on Ephrin type-B receptor 4 it was 0.711 µM (active); in [3], > 30 µM (inactive); in experiment [4], > 30 µM (inactive); in experiment [5], > 30 µM (inactive). Further, the Kd in [6], in experiment [7], in experiment [8], in experiment [9], in [10] and in experiment [11] was > 30 µM (inactive) in each case. Also, the Kd in experiment [12] was > 30 µM (inactive).
On to `O=C(Nc1ccc(OC(F)(F)F)cc1)c1sccc1NCc1ccnc2ccccc12` [OSI-930], for which the Kd (in experiment [1]; in experiment [2]; on Ephrin type-B receptor 4; in experiment [3]; in experiment [4]; in [5]) was > 30 µM (inactive) each time. Further, the Kd in experiment [6], in [7], in experiment [8], in experiment [9], in experiment [10] and in [11] was > 30 µM (inactive) each time. Besides, in experiment [12], the Kd was > 30 µM (inactive).
As to `COc1ccc(-c2ccc3ncc4c(c3c2)n(-c2ccc(N3CCNCC3)c(C(F)(F)F)c2)c(=O)n4C)cn1` [BGT-226 FREE BASE], the Kd (in experiment [1]; in experiment [2]; at Ephrin type-B receptor 4; in experiment [3]; in experiment [4]; in experiment [5]) was > 30 µM (inactive) throughout. Besides, the Kd was 1.01 µM (active) in [6]; > 30 µM (inactive) in experiment [7]; > 30 µM (inactive) in [8]; 3.11 µM (active) in experiment [9]; > 30 µM (inactive) in experiment [10]; > 30 µM (inactive) in [11]. Besides, the Kd in [12] is > 30 µM (inactive).
In the case of `CNC(=O)c1ccc(Nc2ncc(C(F)(F)F)c(NCc3nccnc3N(C)S(C)(=O)=O)n2)cc1` [DEFACTINIB], the Kd (in experiment [1]; in experiment [2]; on Ephrin type-B receptor 4; in [3]; in [4]; in experiment [5]) was > 30 µM (inactive) in each case. The Kd in [6], in experiment [7], in experiment [8], in [9], in experiment [10] and in [11] was > 30 µM (inactive) in each case. In experiment [12], the Kd was > 30 µM (inactive).
Take `c1cc(OCCN2CCCCC2)cc(-c2n[nH]c3ccc(-c4nc[nH]n4)cc23)c1` [CC-401]: the Kd (in experiment [1]; in experiment [2]; on Ephrin type-B receptor 4; in [3]; in experiment [4]; in experiment [5]) was > 30 µM (inactive) each time. In addition, the Kd was > 30 µM (inactive) in [6]; > 30 µM (inactive) in experiment [7]; > 30 µM (inactive) in [8]; 32.4 µM (active) in experiment [9]; > 30 µM (inactive) in experiment [10]; > 30 µM (inactive) in experiment [11]. The Kd in experiment [12] was > 30 µM (inactive).
For the molecule `O=S(=O)(c1cccc2c(O)nccc12)N1CCCNCC1` [HYDROXYFASUDIL], the Kd (in [1]; in [2]; on Ephrin type-B receptor 4; in [3]; in experiment [4]; in experiment [5]) was > 30 µM (inactive) in each case. For the same molecule, the Kd in experiment [6], in experiment [7], in experiment [8], in experiment [9], in [10] and in [11] was > 30 µM (inactive) in each case. Also, the Kd in experiment [12] is > 30 µM (inactive).
For the molecule `CCN1CCN(Cc2ccc(Nc3ncc(F)c(-c4cc(F)c5nc(C)n(C(C)C)c5c4)n3)nc2)CC1` [ABEMACICLIB], the Kd (in [1]; in experiment [2]; at Ephrin type-B receptor 4; in experiment [3]; in experiment [4]; in experiment [5]) was > 30 µM (inactive) throughout. The Kd in experiment [6], in experiment [7], in experiment [8], in experiment [9], in experiment [10] and in [11] was > 30 µM (inactive) in each case. In [12], the Kd is 4.84 µM (active).
